Results on one compound are retold here after article PMC5218480 (PLoS ONE, 2017).

Each structure is given as a SMILES string.

This experiment concerns MV-4-11 cells. Nature of the experiment: Gene expression microarray analysis (Affymetrix PrimeView) and GSEA. On the set-up: RFU PODN (11730768_x_at) / Fold change /veh PODN (11730768_x_at) / RFU LINC00158 (11744669_a_at) / Fold change /veh LINC00158 (11744669_a_at) / RFU DUSP10 (11751237_a_at) / Fold change /veh DUSP10 (11751237_a_at) / RFU ID3 (11757404_x_at) / Fold change /veh ID3 (11757404_x_at) / RFU PLEKHG5 (11737974_s_at) / Fold change /veh PLEKHG5 (11737974_s_at) / RFU LRRC4B (11730491_at) / Fold change /veh LRRC4B (11730491_at) / RFU GIMAP4 (11747438_a_at) / Fold change /veh GIMAP4 (11747438_a_at) / RFU KRT8 (11758183_x_at) / Fold change /veh KRT8 (11758183_x_at) / RFU CNN1 (11734310_a_at) / Fold change /veh CNN1 (11734310_a_at) / RFU VPS37D (11726825_at) / Fold change /veh VPS37D (11726825_at) / RFU C10orf10 (11716522_x_at) / Fold change /veh C10orf10 (11716522_x_at) / RFU KIR2DL2 /// KIR2DL4 /// KIR2DL5A /// KIR2DL5B /// KIR2DS1 /// KIR2DS2 /// KIR2DS3 /// KIR2DS4 /// KIR3DL3 /// KIR3DL3 /// KIR3DS1 (11738374_at) / Fold change /veh KIR2DL2 /// KIR2DL4 /// KIR2DL5A /// KIR2DL5B /// KIR2DS1 /// KIR2DS2 /// KIR2DS3 /// KIR2DS4 /// KIR3DL3 /// KIR3DL3 /// KIR3DS1 (11738374_at) / RFU C1QL1 (11718748_at) / Fold change /veh C1QL1 (11718748_at) / RFU TMPRSS4 (11747572_a_at) / Fold change /veh TMPRSS4 (11747572_a_at) / RFU HAMP (11756126_x_at) / Fold change /veh HAMP (11756126_x_at) / RFU RNFT2 (11725882_a_at) / Fold change /veh RNFT2 (11725882_a_at) / RFU NR4A2 (11747474_a_at) / Fold change /veh NR4A2 (11747474_a_at) / RFU ABCC12 (11746883_a_at) / Fold change /veh ABCC12 (11746883_a_at) / RFU TMEM136 (11760407_x_at) / Fold change /veh TMEM136 (11760407_x_at) / RFU CLDN22 /// WWC2 (11732394_at) / Fold change /veh CLDN22 /// WWC2 (11732394_at) / RFU HLA-DPB1 (11760878_x_at) / Fold change /veh HLA-DPB1 (11760878_x_at) / RFU SPINT1 (11716480_a_at) / Fold change /veh SPINT1 (11716480_a_at) / RFU GAP43 (11754022_s_at) / Fold change /veh GAP43 (11754022_s_at) / RFU A4GNT (11735810_at) / Fold change /veh A4GNT (11735810_at) / RFU PRB3 (11715151_x_at) / Fold change /veh PRB3 (11715151_x_at) / RFU TUBB4B (11761932_at) / Fold change /veh TUBB4B (11761932_at) / RFU CAPN14 (11732068_a_at) / Fold change /veh CAPN14 (11732068_a_at) / RFU TMCC2 (11721928_a_at) / Fold change /veh TMCC2 (11721928_a_at) / RFU IRGQ (11745062_a_at) / Fold change /veh IRGQ (11745062_a_at) / RFU FAM174B (11720279_a_at) / Fold change /veh FAM174B (11720279_a_at) / RFU TMPRSS4 (11748680_a_at) / Fold change /veh TMPRSS4 (11748680_a_at) / RFU FAM212B (11763350_a_at) / Fold change /veh FAM212B (11763350_a_at) / RFU PLEKHG5 (11743358_a_at) / Fold change /veh PLEKHG5 (11743358_a_at) / RFU ZSCAN30 (11745921_a_at) / Fold change /veh ZSCAN30 (11745921_a_at) / RFU CMKLR1 (11741424_a_at) / Fold change /veh CMKLR1 (11741424_a_at) / RFU LOC101060620 /// MAPK8IP1 (11723275_at) / Fold change /veh LOC101060620 /// MAPK8IP1 (11723275_at) / RFU SPTSSB (11747773_x_at) / Fold change /veh SPTSSB (11747773_x_at) / RFU PRSS12 (11739890_at) / Fold change /veh PRSS12 (11739890_at) / RFU BIN1 (11741810_x_at) / Fold change /veh BIN1 (11741810_x_at) / RFU WNT11 (11732464_a_at) / Fold change /veh WNT11 (11732464_a_at) / RFU C10orf10 (11716521_a_at) / Fold change /veh C10orf10 (11716521_a_at) / RFU C5orf56 (11738089_at) / Fold change /veh C5orf56 (11738089_at) / RFU CYB561 (11721691_x_at) / Fold change /veh CYB561 (11721691_x_at) / RFU ANKRD19P (11752326_a_at) / Fold change /veh ANKRD19P (11752326_a_at) / RFU OR2T12 /// OR2T33 /// OR2T8 (11738714_s_at) / Fold change /veh OR2T12 /// OR2T33 /// OR2T8 (11738714_s_at) / RFU VCAN (11748164_a_at) / Fold change /veh VCAN (11748164_a_at) / RFU JSRP1 (11732532_at) / Fold change /veh JSRP1 (11732532_at) / RFU KRTAP10-11 (11738290_x_at) / Fold change /veh KRTAP10-11 (11738290_x_at) / RFU MYO3A (11730013_a_at) / Fold change /veh MYO3A (11730013_a_at) / RFU EBF3 (11725865_a_at) / Fold change /veh EBF3 (11725865_a_at) / RFU CAMK2N1 (11719241_x_at) / Fold change /veh CAMK2N1 (11719241_x_at) / RFU C5orf56 (11738088_a_at) / Fold change /veh C5orf56 (11738088_a_at) / RFU OLFML3 (11715873_a_at) / Fold change /veh OLFML3 (11715873_a_at) / RFU LOC100653217 /// NTM (11731650_a_at) / Fold change /veh LOC100653217 /// NTM (11731650_a_at) / RFU MAPK11 (11762145_a_at) / Fold change /veh MAPK11 (11762145_a_at) / RFU FIZ1 (11724087_x_at) / Fold change /veh FIZ1 (11724087_x_at) / RFU OASL (11726364_x_at) / Fold change /veh OASL (11726364_x_at) / RFU SOX15 (11748057_x_at) / Fold change /veh SOX15 (11748057_x_at) / RFU CD79A (11719716_a_at) / Fold change /veh CD79A (11719716_a_at) / RFU HIST1H1D (11736915_at) / Fold change /veh HIST1H1D (11736915_at) / RFU CASKIN2 (11723855_a_at) / Fold change /veh CASKIN2 (11723855_a_at) / RFU LOC730098 (11760151_x_at) / Fold change /veh LOC730098 (11760151_x_at) / RFU OR4N2 (11742367_at) / Fold change /veh OR4N2 (11742367_at) / RFU PRRT2 (11749266_a_at) / Fold change /veh PRRT2 (11749266_a_at) / RFU SNX32 (11753110_a_at) / Fold change /veh SNX32 (11753110_a_at) / RFU CDHR5 (11726645_a_at) / Fold change /veh CDHR5 (11726645_a_at) / RFU RCAN1 (11760418_a_at) / Fold change /veh RCAN1 (11760418_a_at) / RFU FAM167A (11723789_a_at) / Fold change /veh FAM167A (11723789_a_at) / RFU FAM26E (11764081_at) / Fold change /veh FAM26E (11764081_at) / RFU ISYNA1 (11749810_s_at) / Fold change /veh ISYNA1 (11749810_s_at) / RFU ACY1 (11761880_at) / Fold change /veh ACY1 (11761880_at) / RFU 11764098_at / Fold change /veh 11764098_at / RFU SAMD14 (11745864_x_at) / Fold change /veh SAMD14 (11745864_x_at) / RFU NPB (11741838_a_at) / Fold change /veh NPB (11741838_a_at) / RFU TMPRSS6 (11731388_a_at) / Fold change /veh TMPRSS6 (11731388_a_at) / RFU KRTAP10-2 (11738614_at) / Fold change /veh KRTAP10-2 (11738614_at) / RFU ARHGAP8 /// PRR5-ARHGAP8 (11727945_x_at) / Fold change /veh ARHGAP8 /// PRR5-ARHGAP8 (11727945_x_at) / RFU KRTAP5-7 /// NADSYN1 (11734609_at) / Fold change /veh KRTAP5-7 /// NADSYN1 (11734609_at) / RFU RASL12 (11751679_a_at) / Fold change /veh RASL12 (11751679_a_at) / RFU CDKN2B (11736163_a_at) / Fold change /veh CDKN2B (11736163_a_at) / RFU PRF1 (11729649_at) / Fold change /veh PRF1 (11729649_at) / RFU, ZNF638 /// ZNF638-IT1 / Fold change vs veh, ZNF638 /// ZNF638-IT1 / RFU, PANK3 / Fold change vs veh, PANK3 / RFU, SH3YL1 / Fold change vs veh, SH3YL1 / RFU, ZEB2 / Fold change vs veh, ZEB2 / RFU, NRIP1 / Fold change vs veh, NRIP1 / RFU, PTTG1IP / Fold change vs veh, PTTG1IP / RFU, CAPN2 / Fold change vs veh, CAPN2 / RFU, MED14 / Fold change vs veh, MED14 / RFU, SNORA58 / Fold change vs veh, SNORA58 / RFU, C1orf63 / Fold change vs veh, C1orf63 / RFU, LRRFIP1 / Fold change vs veh, LRRFIP1 / RFU, NDUFAF7 / Fold change vs veh, NDUFAF7 / RFU, SLC12A2 / Fold change vs veh, SLC12A2 / RFU, IBTK / Fold change vs veh, IBTK / RFU, ESF1 / Fold change vs veh, ESF1 / Fold change vs veh, TMEM50B / RFU, TAOK1 / Fold change vs veh, TAOK1 / RFU, ACBD3 / Fold change vs veh, ACBD3 / RFU, TMA16 / Fold change vs veh, TMA16 / RFU, RWDD3 / Fold change vs veh, RWDD3 / RFU, BCAT1 / Fold change vs veh, BCAT1 / RFU, EDEM3 / Fold change vs veh, EDEM3 / RFU, TMEM33 / Fold change vs veh, TMEM33 / RFU, WDR75 / Fold change vs veh, WDR75 / RFU, AHCTF1 / Fold change vs veh, AHCTF1 / RFU, TFRC / Fold change vs veh, TFRC / RFU, ZDHHC17 / Fold change vs veh, ZDHHC17 / RFU, NOM1 / Fold change vs veh, NOM1 / RFU, ARL8B / Fold change vs veh, ARL8B / RFU, ZBTB11 / Fold change vs veh, ZBTB11 / RFU, TAMM41 / Fold change vs veh, TAMM41 / RFU, KIAA1704 /// LOC100996395 / Fold change vs veh, KIAA1704 /// LOC100996395 / RFU, ING1 / Fold change vs veh, ING1 / RFU, TRMT61B / Fold change vs veh, TRMT61B / RFU, FUBP3 / Fold change vs veh, FUBP3 / RFU, TP53 / Fold change vs veh, TP53 / RFU, TNKS2 / Fold change vs veh, TNKS2 / RFU, ZFP14 / Fold change vs veh, ZFP14 / RFU, ACTR2 / Fold change vs veh, ACTR2 / RFU, PPP3R1 / Fold change vs veh, PPP3R1 / RFU, PIK3R1 / Fold change vs veh, PIK3R1 / RFU, HNRNPA1 / Fold change vs veh, HNRNPA1 / RFU, RNF170 / Fold change vs veh, RNF170 / RFU, ZNF28 / Fold change vs veh, ZNF28 / RFU, RNGTT / Fold change vs veh, RNGTT / RFU, OGT / Fold change vs veh, OGT / RFU, BRD1 / Fold change vs veh, BRD1 / RFU, MARS / Fold change vs veh, MARS / RFU, ZNF655 / Fold change vs veh, ZNF655 / RFU, FAHD1 / Fold change vs veh, FAHD1 / RFU, BDP1 / Fold change vs veh, BDP1 / RFU, LRRCC1 / Fold change vs veh, LRRCC1 / RFU, ARID1A / Fold change vs veh, ARID1A / RFU, ZNF146 / Fold change vs veh, ZNF146 / RFU, ZNF330 / Fold change vs veh, ZNF330 / RFU, GPN3 / Fold change vs veh, GPN3 / RFU, C9orf123 / Fold change vs veh, C9orf123 / RFU, N4BP2L2 / Fold change vs veh, N4BP2L2 / RFU, ARFIP1 / Fold change vs veh, ARFIP1 / RFU, FAM179B / Fold change vs veh, FAM179B / RFU, BCL10 / Fold change vs veh, BCL10 / RFU, UHRF1BP1L / Fold change vs veh, UHRF1BP1L / RFU, BET1 / Fold change vs veh, BET1 / RFU, CNOT2 / Fold change vs veh, CNOT2 / RFU, ZNF268 / Fold change vs veh, ZNF268 / Fold change vs veh, ZNF507 / RFU, DGCR2 / Fold change vs veh, DGCR2 / RFU, WDSUB1 / Fold change vs veh, WDSUB1 / Fold change vs veh, HSP90B1 /// MIR3652 / RFU, ADSS / Fold change vs veh, ADSS / RFU, GK / Fold change vs veh, GK / RFU, ZNF148 / Fold change vs veh, ZNF148 / RFU, TAF9 / Fold change vs veh, TAF9 / RFU, SLC1A5 / Fold change vs veh, SLC1A5 / RFU, SLMO2 / Fold change vs veh, SLMO2 / RFU, ABCC4 / Fold change vs veh, ABCC4 / RFU, LOC101060439 /// RAP1B / Fold change vs veh, LOC101060439 /// RAP1B / RFU, RFX7 / Fold change vs veh, RFX7 / RFU, GTPBP10 / Fold change vs veh, GTPBP10 / RFU, CNEP1R1 / Fold change vs veh, CNEP1R1 / RFU, BIVM-ERCC5 /// ERCC5 / Fold change vs veh, BIVM-ERCC5 /// ERCC5 / RFU, ILF3 / Fold change vs veh, ILF3 / RFU 11762660_at / Fold change /veh 11762660_at / RFU VCAN (11757783_s_at) / Fold change /veh VCAN (11757783_s_at) / RFU DDX43 (11728927_at) / Fold change /veh DDX43 (11728927_at) / RFU KRT8 (11758188_x_at) / Fold change /veh KRT8 (11758188_x_at) / RFU NKD1 (11759106_at) / Fold change /veh NKD1 (11759106_at) / RFU SRD5A1 (11742802_a_at) / Fold change /veh SRD5A1 (11742802_a_at) / RFU TPSAB1 /// TPSB2 (11721975_s_at) / Fold change /veh TPSAB1 /// TPSB2 (11721975_s_at) / RFU GSTM3 (11746129_a_at) / Fold change /veh GSTM3 (11746129_a_at) / RFU IL23R (11737362_x_at) / Fold change /veh IL23R (11737362_x_at) / RFU TMEM51 (11727254_a_at) / Fold change /veh TMEM51 (11727254_a_at) / RFU PIWIL2 (11732686_x_at) / Fold change /veh PIWIL2 (11732686_x_at) / RFU ORM1 (11744905_x_at) / Fold change /veh ORM1 (11744905_x_at) / RFU CCDC152 (11743942_at) / Fold change /veh CCDC152 (11743942_at) / RFU ECM1 (11717891_a_at) / Fold change /veh ECM1 (11717891_a_at) / RFU IL23R (11748794_a_at) / Fold change /veh IL23R (11748794_a_at) / RFU TNFAIP8L3 (11732012_x_at) / Fold change /veh TNFAIP8L3 (11732012_x_at) / RFU MBOAT4 (11741988_at) / Fold change /veh MBOAT4 (11741988_at) / RFU 11764193_at / Fold change /veh 11764193_at / RFU TMEM53 (11763286_at) / Fold change /veh TMEM53 (11763286_at) / RFU MAGEB2 (11727129_at) / Fold change /veh MAGEB2 (11727129_at) / RFU TMEM200A (11744735_a_at) / Fold change /veh TMEM200A (11744735_a_at) / RFU CCDC152 (11751479_a_at) / Fold change /veh CCDC152 (11751479_a_at) / RFU FAM211A (11726209_a_at) / Fold change /veh FAM211A (11726209_a_at) / RFU RGS16 (11746705_a_at) / Fold change /veh RGS16 (11746705_a_at) / RFU VCAN (11755009_s_at) / Fold change /veh VCAN (11755009_s_at) / RFU RHOB (11743442_s_at) / Fold change /veh RHOB (11743442_s_at) / RFU RGS16 (11720943_a_at) / Fold change /veh RGS16 (11720943_a_at) / RFU RGS16 (11720944_at) / Fold change /veh RGS16 (11720944_at) / RFU, VPS4B / Fold change vs veh, VPS4B / RFU, CREB1 / Fold change vs veh, CREB1 / RFU, DNAJC13 / Fold change vs veh, DNAJC13 / RFU, GNAQ / Fold change vs veh, GNAQ / RFU, CDK5R1 / Fold change vs veh, CDK5R1 / RFU, ZRANB3 / Fold change vs veh, ZRANB3 / RFU, CUL4A / Fold change vs veh, CUL4A / RFU, CCNY / Fold change vs veh, CCNY / RFU, UFL1 / Fold change vs veh, UFL1 / RFU, COG3 / Fold change vs veh, COG3 / RFU, DIAPH2 / Fold change vs veh, DIAPH2 / RFU, SKA2 / Fold change vs veh, SKA2 / RFU, AFF3 / Fold change vs veh, AFF3 / RFU, LMF1 / Fold change vs veh, LMF1 / RFU, IPO11 / Fold change vs veh, IPO11 / RFU, DFFB / Fold change vs veh, DFFB / RFU, FOXP1 / Fold change vs veh, FOXP1 / RFU, CARD8 / Fold change vs veh, CARD8 / RFU, STRN3 / Fold change vs veh, STRN3 / RFU, ADK / Fold change vs veh, ADK / RFU, RASSF2 / Fold change vs veh, RASSF2 / RFU, WIPF1 / Fold change vs veh, WIPF1 / RFU, LARP1B / Fold change vs veh, LARP1B / RFU, RASA1 / Fold change vs veh, RASA1 / RFU, RB1 / Fold change vs veh, RB1 / RFU, PPFIA1 / Fold change vs veh, PPFIA1 / RFU, MAT2A / Fold change vs veh, MAT2A / RFU, CCT5 / Fold change vs veh, CCT5 / RFU, WDR92 / Fold change vs veh, WDR92 / RFU, CUX1 / Fold change vs veh, CUX1 / RFU, TTC7A / Fold change vs veh, TTC7A / RFU, TMEM135 / Fold change vs veh, TMEM135 / RFU, DEPTOR / Fold change vs veh, DEPTOR / RFU, CPM / Fold change vs veh, CPM / RFU, DNAJB6 / Fold change vs veh, DNAJB6 / RFU, CACNA2D3 / Fold change vs veh, CACNA2D3 / RFU, DTX4 / Fold change vs veh, DTX4 / RFU, TFCP2 / Fold change vs veh, TFCP2 / RFU, GMCL1 /// GMCL1P1 / Fold change vs veh, GMCL1 /// GMCL1P1 / RFU, AEBP2 / Fold change vs veh, AEBP2 / RFU, SNHG1 /// SNORD22 /// SNORD25 /// SNORD26 /// SNORD27 /// SNORD28 /// SNORD29 /// SNORD31 / Fold change vs veh, SNHG1 /// SNORD22 /// SNORD25 /// SNORD26 /// SNORD27 /// SNORD28 /// SNORD29 /// SNORD31 / Fold change (Aza/veh), C12orf56 (ProbeSet 11735607_a_at) / Fold change (ACY-1035/veh), C12orf56 (ProbeSet 11735607_a_at) / Fold change (Aza/veh), FGFR1OP (ProbeSet 11751329_s_at) / Fold change (ACY-1035/veh), FGFR1OP (ProbeSet 11751329_s_at) / Fold change (Aza/veh), VPS36 (ProbeSet 11739960_a_at) / Fold change (ACY-1035/veh), VPS36 (ProbeSet 11739960_a_at) / RFU SYPL1 (11715823_x_at) / Fold change /veh SYPL1 (11715823_x_at) / RFU IGFBP7 (11715501_s_at) / Fold change /veh IGFBP7 (11715501_s_at) / RFU REEP3 (11722064_at) / Fold change /veh REEP3 (11722064_at) / RFU IGLL1 (11728026_x_at) / Fold change /veh IGLL1 (11728026_x_at): dose or concentration left out as unconfirmed. The experiment is classed as cell-based, human. As to conditions: ProbeSet 11741311_a_at; LIST B.

Take `Nc1ccc(-c2cccs2)cc1NC(=O)c1ccc2c(c1)cc(C1CC1)n2CCN1CCOCC1` [ACY-1035]: the “Fold change vs veh, ZNF655” value stood at 0.99.
